Source: patent publication US20100166714A1, “CARDIOVASCULAR STEM CELLS, METHODS FOR STEM CELL ISOLATION, AND USES THEREOF” (THE GENERAL HOSPITAL CORPORATION, priority 2006, published 2010)

Test system: FACS purified isl1+ progenitors spontaneously differentiated into smooth muscle cells
Test: Calcium imaging (fluo-4) after Angiotensin II stimulation
Type: cell-based, mouse
Details: Angiotensin II 10^-7 M
Description: Calcium imaging. FACS purified isl1^+ progenitors from double heterozygous isl1-mER-Cre-mER/R26R were plated on fibronectin coated glass chamber slides and allowed to spontaneously differentiate in DMEM/F12 containing B27 supplement, 2% FBS, and 10 ng/ml EGF. After 5 days in culture, cells were incubated for 20 minutes with 5 μM Fluo-4 AM (Molecular Probes) in HEPES buffer. Cells were then rinsed three times in HEPES buffer, pH 7.4, containing 1.5 mM Ca^2+. Angiotensin II was applied at the final concentration of 10^−7 M. Calcium imaging was acquired every 100 msec in 100 sec installment and analyzed using Metamorph software (Universal Imaging Corporation). Each experiment included three installments to cover the period of the agonist effect.

Angiotensin II (DRVYIHPF; Angiotensin-2; UniProt P01019 25-32, looked up)
measured cells in which exposure induced a progressive cytosolic [Ca2+]i increase (isl1+ progenitors from isl1-mER-Cre-mER/R26R mice after 5 days in culture, Fluo-4 AM): 4 of 25
time at which the cytosolic [Ca2+]i increase reached the maximum (responding cells, diminished thereafter): ~70 s
